Type in all cases: cell-based
What all share (settings): ratio to NECA

The target of one test is T1, adenosine 2a receptor (Homo sapiens, UniProt P29274).
T1 construct: expressed in transfected cells; host or cells: CHO cells
Put plainly: Agonist activity, CHO cells transfected with human adenosine receptor and CRE-SPAP reporter; basal cAMP (A2a). How it is done: (§1) (1) Agonist activity against adenosine 2a, adenosine 1 and adenosine 3 receptor subtypes.
(§2) Agonist selectivity of compounds against other human adenosine receptors is determined using Chinese hamster ovary (CHO) cells transfected with the gene for the relevant human adenosine receptor following a method based on that of Castanon and Spevak, 1994. The CHO cells are also transfected with cyclic AMP response elements promoting the gene for secreted placental alkaline phosphatase (SPAP) (Wood, 1995). The effect of test compounds may be determined by their effects on basal levels of CAMP (A2a) or on forskolin-enhanced cAMP (A1 and A3) as reflected by changes in levels of SPAP. EC50 values for compounds may then be determined as a ratio to that of the non-selective agonist N-ethyl carboxamide adenosine (NECA).

Another test concerns the target T2, adenosine 3 receptor (Homo sapiens, UniProt P0DMS8).
T2 construct: expressed in transfected cells; host or cells: CHO cells
T2 sequence (P0DMS8 1-318): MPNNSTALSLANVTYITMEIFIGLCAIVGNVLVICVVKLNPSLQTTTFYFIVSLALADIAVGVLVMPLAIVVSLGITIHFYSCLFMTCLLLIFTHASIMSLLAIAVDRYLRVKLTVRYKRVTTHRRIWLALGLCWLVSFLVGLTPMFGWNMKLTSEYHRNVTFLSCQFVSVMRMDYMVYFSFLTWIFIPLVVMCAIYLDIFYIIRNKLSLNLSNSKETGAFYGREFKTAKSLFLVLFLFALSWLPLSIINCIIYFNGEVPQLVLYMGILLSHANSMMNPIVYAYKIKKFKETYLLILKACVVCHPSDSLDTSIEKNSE
The test is described as follows: Agonist activity, CHO cells transfected with human adenosine receptor and CRE-SPAP reporter; forskolin-enhanced cAMP (A3). As for the experimental part: as §1, §2

The next test addresses T3, adenosine 1 receptor (Homo sapiens, UniProt P30542).
T3 construct: expressed in transfected cells; host or cells: CHO cells
T3 sequence (P30542 1-326): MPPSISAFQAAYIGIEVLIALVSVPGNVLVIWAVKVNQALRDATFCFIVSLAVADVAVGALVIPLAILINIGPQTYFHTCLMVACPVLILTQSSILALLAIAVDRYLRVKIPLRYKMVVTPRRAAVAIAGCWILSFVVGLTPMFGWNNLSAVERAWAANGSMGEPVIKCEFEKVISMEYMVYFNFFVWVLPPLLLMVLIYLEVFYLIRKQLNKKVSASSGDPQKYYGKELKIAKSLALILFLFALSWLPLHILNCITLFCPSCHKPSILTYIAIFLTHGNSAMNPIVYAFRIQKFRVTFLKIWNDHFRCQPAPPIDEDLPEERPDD
Put plainly: Agonist activity, CHO cells transfected with human adenosine receptor and CRE-SPAP reporter; forskolin-enhanced cAMP (A1). As for the experimental part: as §1, §2

[1] abbreviates: * data are minimum values since preparation was found, after testing, to contain an inactive impurity.
Where [2] appears, read: ** data on retested purified compound.

Structures can show the parent of a compound that is named as a salt.

T1 sequence (P29274 whole entry): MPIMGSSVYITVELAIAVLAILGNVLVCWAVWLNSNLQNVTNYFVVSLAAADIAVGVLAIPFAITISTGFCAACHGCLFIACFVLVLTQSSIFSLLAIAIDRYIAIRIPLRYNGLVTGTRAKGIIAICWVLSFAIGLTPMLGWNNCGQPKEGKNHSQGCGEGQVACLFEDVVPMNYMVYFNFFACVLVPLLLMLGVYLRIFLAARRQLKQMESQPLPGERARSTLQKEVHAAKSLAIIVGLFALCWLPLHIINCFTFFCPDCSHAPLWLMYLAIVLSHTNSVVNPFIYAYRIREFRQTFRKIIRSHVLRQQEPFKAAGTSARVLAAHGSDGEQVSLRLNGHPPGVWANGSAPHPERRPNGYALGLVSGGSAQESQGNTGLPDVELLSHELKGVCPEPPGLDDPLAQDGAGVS

On to `CCCc1noc([C@H]2O[C@@H](n3cnc4c(NCC(c5ccccc5)c5ccccc5)nc(NCCc5cn(C)cn5)nc43)[C@H](O)[C@@H]2O)n1.O=CO` [Example 33, (2R,3R,4S,5S)-2-{6-(2,2-Diphenyl-ethylamino)-2-[2-(1-methyl-1H-imidazol-4-yl)-ethylamino]-purin-9-yl}-5-(3-propyl-[1,2,4]oxadiazol-5-yl)-tetrahydro-furan-3,4-diol formate], for which the “A2a, EC50 as a ratio of that of NECA” value at adenosine 2a receptor (setting [1]) came out at 8.35. Moreover, the “A3, EC50 as a ratio of that of NECA” value at adenosine 3 receptor (setting [1]) was above 259. Further, the “A1, EC50 as a ratio of that of NECA” value on adenosine 1 receptor (setting [1]) is reported as “≧815.9”.
Take `Cc1noc(C2OC(n3cnc4c(NCC(c5ccccc5)c5ccccc5)nc(NCCc5c[nH]cn5)nc43)C(O)C2O)n1` [Example 34, (2R,3R,4S,5S)-2-{6-(2,2-Diphenyl-ethylamino)-2-[2-(1H-imidazol-4-yl)-ethylamino]-purin-9-yl}-5-(3-methyl-[1,2,4oxadiazol-5-yl)-tetrahydro-furan-3,4-diol formate]: the “A2a, EC50 as a ratio of that of NECA” value on adenosine 2a receptor (setting [1]) turned out to be 8.31. Also, the “A3, EC50 as a ratio of that of NECA” value at adenosine 3 receptor (setting [1]) turned out to be 231.1. Further, the “A1, EC50 as a ratio of that of NECA” value at adenosine 1 receptor (setting [1]) amounted to 3270.8.
For `CCC(CC)Nc1nc(NC(CO)Cc2ccccc2)nc2c1ncn2C1OC(c2nc(C)no2)C(O)C1O` [Example 17, (2R,3R,4S,5S)-2-[6-(1-Ethyl-propylamino)-2-(1S-hydroxymethyl-2-phenl-ethylamino)-purin-9-yl]-5-(3-methyl-[1,2,4]oxadiazol-5-yl)-tetrahydro-furan-3,4-diol formate], in that order: 3.97, above 362 and above 6244.
In the case of `CCc1noc([C@H]2O[C@@H](n3cnc4c(NCC(c5ccccc5)c5ccccc5)nc(Nc5ccc(F)cc5)nc43)[C@H](O)[C@@H]2O)n1.O=CO` [Example 44, (2R,3R,4S,5S)-2-[6-(2,2-Diphenyl-ethylamino)-2-(4-fluoro-phenylamino)-purin-9-yl]-5-(3-ethyl-[1,2,4]oxadiazol-5-yl)-tetrahydro-furan-3,4-diol formate], the “A2a, EC50 as a ratio of that of NECA” value at adenosine 2a receptor (CHO cells, SPAP readout) is recorded as 94.39. For the same molecule, at adenosine 3 receptor (CHO cells, SPAP readout), the “A3, EC50 as a ratio of that of NECA” value is above 165. Further, on adenosine 1 receptor (CHO cells, SPAP readout), the “A1, EC50 as a ratio of that of NECA” value is on record as above 6131.
In the same order, the values of `CCC(CC)Nc1nc(N[C@H]2CCC[C@@H]2O)nc2c1ncn2[C@@H]1O[C@H](c2nc(C)no2)[C@@H](O)[C@H]1O.O=CO` [Example 24, (2R,3R,4S,5S)-2-[6-(1-Ethyl-propylamino)-2-(2S-hydroxy-cyclopent-(S)-ylamino)-purin-9-yl]-5-(3-methyl-[1,2,4]oxadiazol-5-yl)-tetrahydro-furan-3,4-diol formate] are 18.13, above 284 and above 5264.
In the same order, the values of `CCC(CC)Nc1nc(NCCc2ccccn2)nc2c1ncn2[C@@H]1O[C@H](c2nc(C3CC3)no2)[C@@H](O)[C@H]1O.O=CO.O=CO` [Example 37] are 49.45, above 87 and above 10402.
For “(2S,3S,4R,5R)-2-(3-Cyclopropyl-[1,2,4]oxadiazol-5-yl)-5-[6-(1-ethyl-propylamino)-2-(2-(1-methyl-1H-imidazol-4-yl)-ethylamino)-purin-9-yl]-tetrahydro-furan-3,4-diol diformate [Example 38]”, in that order: 2.02, above 87 and 670.04.
Take `CCc1noc(C2OC(n3cnc4c(N)nc(NCCc5cn(C)cn5)nc43)C(O)C2O)n1` [Example 10, (2R,3R,4S,5S)-2-{6-Amino-2-[2-(1-methyl-1H-imidazol-4-yl)-ethylamino]-purin-9-yl}-5-(3-ethyl-1,2,4]oxadiazol-5-yl)-tetrahydro-furan-3,4-diol diformate]: at adenosine 2a receptor (setting [1]), the “A2a, EC50 as a ratio of that of NECA” value came to 7.66. The “A3, EC50 as a ratio of that of NECA” value at adenosine 3 receptor (setting [1]) is given as above 269. Also, on adenosine 1 receptor (setting [1]), the “A1, EC50 as a ratio of that of NECA” value is reported as 3449.6.
For `CCc1noc(C2OC(n3cnc4c(N)nc(NC(CO)Cc5ccccc5)nc43)C(O)C2O)n1` [Example 9, (2R,3R,4S,5S)-2-[6-Amino-2-(1S-hydroxymethyl-2-phenyl-ethylamino)-purin-9-yl]-5-(3-ethyl-[1,2,4oxadiazol-5-yl)-tetrahydro-furan-3,4-diol formate], the “A2a, EC50 as a ratio of that of NECA” value on adenosine 2a receptor (setting [1]) amounted to 0.81; on adenosine 2a receptor (setting [2]) it was 0.086. For the same molecule, the entries for the “A3, EC50 as a ratio of that of NECA” value at adenosine 3 receptor (setting [1]) and on adenosine 3 receptor (setting [2]) were above 231 and above 287, respectively. The entries for the “A1, EC50 as a ratio of that of NECA” value at adenosine 1 receptor (setting [1]) and on adenosine 1 receptor (setting [2]) were 1692.4 and 3006, respectively.
With `CCc1noc([C@H]2O[C@@H](n3cnc4c(NC(CC)CC)nc(NCCc5ccccn5)nc43)[C@H](O)[C@@H]2O)n1.O=CO` [Example 21, (2S,3S,4R,5R)-2-(3-Ethyl-[1,2,4]oxadiazol-5-yl)-5-[6-(1-ethyl-propylamino)-2-(2-pyridin-2-yl-ethylamino)-purin-9-yl]-tetrahydro-furan-3,4-diol formate], at adenosine 2a receptor (setting [1]), the “A2a, EC50 as a ratio of that of NECA” value was found to be 9.39. Further, the “A3, EC50 as a ratio of that of NECA” value on adenosine 3 receptor (setting [1]) is given as above 303. Besides, the “A1, EC50 as a ratio of that of NECA” value at adenosine 1 receptor (setting [1]) is above 5090.
Regarding `CCc1noc([C@H]2O[C@@H](n3cnc4c(NCC(c5ccccc5)c5ccccc5)nc(NCCN5CCCCC5)nc43)[C@H](O)[C@@H]2O)n1.O=CO` [Example 32, (2R,3R,4S,5S)-2-[6-(2,2-Diphenyl-ethylamino)-2-(2-piperidin-1-yl-ethylamino)-purin-9-yl]-5-(3-ethyl-[1,2,4]oxadiazol-5-yl)-tetrahydro-furan-3,4-diol formate], the “A2a, EC50 as a ratio of that of NECA” value on adenosine 2a receptor (CHO cells, SPAP readout) was 31.4. Further, at adenosine 3 receptor (CHO cells, SPAP readout), the “A3, EC50 as a ratio of that of NECA” value was above 258. At adenosine 1 receptor (CHO cells, SPAP readout), the “A1, EC50 as a ratio of that of NECA” value is 7521.
In the case of `CCc1noc([C@H]2O[C@@H](n3cnc4c(NC(CC)CC)nc(NCCN5CCCCC5)nc43)[C@H](O)[C@@H]2O)n1.O=CO` [Example 20, (2S,3S,4R,5R)-2-(3-Ethyl-[1,2,4]oxadiazol-5-yl)-5-[6-(1-ethyl-propylamino)-2-(2-piperidin-1-yl-ethylamino)-purin-9-yl]-tetrahydro-furan-3,4-diol formate], the “A2a, EC50 as a ratio of that of NECA” value on adenosine 2a receptor (setting [1]) is recorded as 17.08. For the same molecule, the “A3, EC50 as a ratio of that of NECA” value at adenosine 3 receptor (setting [1]) was above 694. Moreover, the “A1, EC50 as a ratio of that of NECA” value on adenosine 1 receptor (setting [1]) is listed as “>=1853”.
Take `Cc1noc([C@H]2O[C@@H](n3cnc4c(NCC(c5ccccc5)c5ccccc5)nc(NCCc5cn(C)cn5)nc43)[C@H](O)[C@@H]2O)n1.O=C(O)C(F)(F)F.O=C(O)C(F)(F)F` [Example 1]: the “A2a, EC50 as a ratio of that of NECA” value on adenosine 2a receptor (CHO cells, SPAP readout) stood at 1.19. For the same molecule, the “A3, EC50 as a ratio of that of NECA” value on adenosine 3 receptor (CHO cells, SPAP readout) was above 197. Besides, the “A1, EC50 as a ratio of that of NECA” value at adenosine 1 receptor (CHO cells, SPAP readout) came to 1306.
In the case of `Cc1noc([C@H]2O[C@@H](n3cnc4c(N)nc(NC5CCCC5)nc43)[C@H](O)[C@@H]2O)n1.O=CO` [Example 11, (2R,3R,4S,5S)-2-(6-Amino-2-cyclopentylamino-purin-9-yl)-5-(3-methyl-[1,2,4]oxadiazol-5-yl)-tetrahydro-furan-3,4-diol formate], the “A2a, EC50 as a ratio of that of NECA” value on adenosine 2a receptor (setting [1]) was determined as 6.66. Besides, the “A3, EC50 as a ratio of that of NECA” value on adenosine 3 receptor (setting [1]) is above 266. The “A1, EC50 as a ratio of that of NECA” value on adenosine 1 receptor (setting [1]) amounted to 145.5.
In the case of `Cc1noc([C@H]2O[C@@H](n3cnc4c(N)nc(NCCc5ccccc5)nc43)[C@H](O)[C@@H]2O)n1.O=C(O)C(F)(F)F` [Example 15, (2R,3R,4S,5S)-2-(6-Amino-2-phenethylamino-purin-9-yl)-5-(3-methyl-[1,2,4]oxadiazol-5-yl)-tetrahydro-furan-3,4-diol trifluoroacetate], the “A2a, EC50 as a ratio of that of NECA” value at adenosine 2a receptor (CHO cells, SPAP readout) came to 2.29. At adenosine 3 receptor (CHO cells, SPAP readout), the “A3, EC50 as a ratio of that of NECA” value is on record as above 130. The “A1, EC50 as a ratio of that of NECA” value at adenosine 1 receptor (CHO cells, SPAP readout) is above 5511.
In the same order, the values of `CCc1noc([C@H]2O[C@@H](n3cnc4c(NC(CC)CC)nc(N[C@H]5CCC[C@@H]5O)nc43)[C@H](O)[C@@H]2O)n1.O=CO` [Example 25, (2S,3S,4R,5R)-2-(3-Ethyl-[1,2,4]oxadiazol-5-yl)-5-[6-(1-ethyl-propylamino)-2-(2S-hydroxy-cyclopent-(S)-ylamino)-purin-9-yl]-tetrahydro-furan-3,4-diol formate] are 19.35, above 163 and 515.35.

The values above are taken from patent US6610665B1 (Smithkline Beecham Corporation, priority 1998, dated 2003).
